Tested on: library of 8,380 IKZF3 degrons (ZF-eGFP/mCherry reporter) in Jurkat cells
Assay: Pooled library screen (FACS, NGS, limma voom LogFC of positive vs negative read counts)
Type: cell-based, human
Description: A library of 8,380 IKZF3 degrons was cloned into pLVX-Sprout to create the eGFP/mCherry protein degradation reporter plasmid pool. A lentivirus pool was then generated using the Lenti-X lentiviral vector production method.
Jurkat cells were transduced at a multiplicity of infection of <0.3 with the lentivirus vector library in order to maximise the number of cells with a single integration. Transductions were carried out in 6 well TC-treated cell culture dishes (Falcon) with 3×10^6 cells per well. Cells were incubated for 2 days at 37° C. and 5% CO2 before the supernatant was removed and replaced with fresh media. 6 days post-transduction, mCherry+ cells were isolated via FACS using the FACS Aria Fusion (BD) in a buffer containing PBS (Gibco), 2 mM EDTA (Gibco), 25 mM HEPES (Sigma) and 1% BSA (Sigma). 8 days later, cells were treated with DMSO or a thalidomide analog for 18 hours at 37° C. and 5% CO2. mCherry+GFPlow and NOT(mCherry+GFPlow) cells were sorted by FACS using the FACS Aria Fusion (BD). DMSO treated cells were used to set the mCherry+GFPlow gate and dead cells were excluded from sorting by staining cells with 1 μg/mL DAPI (ThermoFisher). gDNA was isolated using the Maxwell RSC 48 (Promega). gDNA from cells that were unsorted and untreated were also isolated to determine the library representation on the day of compound treatment. Throughout the screen >600× coverage of the library was maintained. 3 biological replicates were carried out with a new transduction taking place each time.
A two-step PCR was used where the first PCR (PCR1) amplified the integrated degron sequence from gDNA and the second PCR (PCR2) added Illumina adaptors and barcodes to permit multiplexing. See Supp F for PCR1 and PCR2 primers. Q5 Hot Start High-Fidelity 2× Master Mix (New England Biolabs) was used for both PCRs. Sufficient gDNA was amplified in PCR1 in order to maintain >600× coverage and amplicons were purified using solid phase reversible immobilization (SPRI) beads (Beckman Coulter). Purified PCR1 products were analysed on the Tapestation 4200 (Agilent) to confirm purity prior to proceeding to PCR2. Sufficient PCR1 product was amplified in PCR2 in order to maintain >600× coverage and amplicons were run on a 2% agarose TAE gel. Target bands were excised and purified using the NucleoSpin Gel and PCR Clean-up Kit (Machery Nagel). Amplicons were analysed on the Tapestation 4200 and quantified using Qubit dsDNA HS kit (ThermoFisher). PCR products were pooled and sequenced as paired-reads on the NovaSeq (Illumina) using a SP2 200 cycles kit (Illumina).
Count distributions, percentage of read mapping, library coverage and replicate correlation per sample were assessed for QC purposes.
To carry out the library screen, we used the same plasmid construct as in our earlier flow cytometry assays, but pooling all 8,380 mutants together into one Jurkat population, ensuring a copy number of one plasmid per cell (FIG. 4B). […] These GFP-negative cells were then separated from the remaining GFP-positive population using fluorescence activated cell sorting (FACS). These two populations were then sequenced and the relative abundance of every mutant in both populations compared to provide a log FC value for each mutant sequence. This value indicated how frequently a sequence is observed in the GFP-negative population relative to the GFP-positive population, and therefore how effective a degron it is for that particular IMID compound.

**Q.** What does the source list for `O=C1CCC(N2C(=O)c3ccc(N4CCOCC4)cc3C2=O)C(=O)N1` (centres unmarked) [B03]?
**A.** B03_logFC (Degron-ID 115, SEQ ID NO 3968, 46F_47A_49E_50V_52G_53A_54S_55F_67L): 2.732; B03_logFC (Degron-ID 120, SEQ ID NO 4031, 46F_47A_49N_50I_52G_53A_54A_55F_67L): 2.638; B03_logFC (Degron-ID 315, SEQ ID NO 3989, 46F_47C_49E_50I_52G_53A_54S_55F_67L): 2.703; B03_logFC (Degron-ID 372, SEQ ID NO 3966, 46F_47C_49N_50I_52G_53A_54P_55F_67L): 2.733; B03_logFC (Degron-ID 433, SEQ ID NO 4021, 46F_47C_49P_50I_52G_53A_54Q_55F_67L): 2.656; B03_logFC (Degron-ID 434, SEQ ID NO 3957, 46F_47C_49P_50I_52G_53A_54R_55F_67L): 2.746; B03_logFC (Degron-ID 435, SEQ ID NO 3984, 46F_47C_49P_50I_52G_53A_54S_55F_67L): 2.71; B03_logFC (Degron-ID 977, SEQ ID NO 4017, 46F_47F_49D_50I_52G_53A_54V_55F_67L): 2.662; B03_logFC (Degron-ID 1011, SEQ ID NO 3988, 46F_47F_49D_50V_52G_53A_54N_55F_67L): 2.704; B03_logFC (Degron-ID 1015, SEQ ID NO 3971, 46F_47F_49D_50V_52G_53A_54S_55F_67L): 2.728; B03_logFC (Degron-ID 1065, SEQ ID NO 3981, 46F_47F_49E_50V_52G_53A_54G_55F_67L): 2.716; B03_logFC (Degron-ID 1080, SEQ ID NO 4003, 46F_47F_49N_50I_52G_53A_54A_55F_67L): 2.68; B03_logFC (Degron-ID 1081, SEQ ID NO 4001, 46F_47F_49N_50I_52G_53A_54C_55F_67L): 2.686; B03_logFC (Degron-ID 1097, SEQ ID NO 3956, 46F_47F_49N_50I_52G_53A_54V_55F_67L): 2.747; B03_logFC (Degron-ID 1183, SEQ ID NO 4013, 46F_47F_49P_50V_52G_53A_54E_55F_67L): 2.668; B03_logFC (Degron-ID 1188, SEQ ID NO 4025, 46F_47F_49P_50V_52G_53A_54K_55F_67L): 2.644; B03_logFC (Degron-ID 1197, SEQ ID NO 3982, 46F_47F_49P_50V_52G_53A_54V_55F_67L): 2.716; B03_logFC (Degron-ID 1267, SEQ ID NO 3977, 46F_47G_49E_50I_52G_53A_54I_55F_67L): 2.719; B03_logFC (Degron-ID 1273, SEQ ID NO 4024, 46F_47G_49E_50I_52G_53A_54Q_55F_67L): 2.644; B03_logFC (Degron-ID 1314, SEQ ID NO 3964, 46F_47G_49E_50V_52G_53A_54R_55F_67L): 2.737; B03_logFC (Degron-ID 1393, SEQ ID NO 4023, 46F_47G_49P_50I_52G_53A_54Q_55F_67L): 2.648; B03_logFC (Degron-ID 1433, SEQ ID NO 4022, 46F_47G_49P_50V_52G_53A_54Q_55F_67L): 2.653; B03_logFC (Degron-ID 1513, SEQ ID NO 4030, 46F_47H_49E_50I_52G_53A_54Q_55F_67L): 2.639; B03_logFC (Degron-ID 1515, SEQ ID NO 4006, 46F_47H_49E_50I_52G_53A_54S_55F_67L): 2.675; B03_logFC (Degron-ID 1555, SEQ ID NO 4029, 46F_47H_49E_50V_52G_53A_54S_55F_67L): 2.639; B03_logFC (Degron-ID 1621, SEQ ID NO 4027, 46F_47H_49P_50I_52G_53A_54C_55F_67L): 2.643; B03_logFC (Degron-ID 1751, SEQ ID NO 3952, 46F_47I_49E_50I_52G_53A_54N_55F_67L): 2.753; B03_logFC (Degron-ID 1754, SEQ ID NO 4020, 46F_47I_49E_50I_52G_53A_54R_55F_67L): 2.656; B03_logFC (Degron-ID 1755, SEQ ID NO 3970, 46F_47I_49E_50I_52G_53A_54S_55F_67L): 2.728; B03_logFC (Degron-ID 1785, SEQ ID NO 4016, 46F_47I_49E_50V_52G_53A_54G_55F_67L): 2.664; B03_logFC (Degron-ID 1865, SEQ ID NO 4014, 46F_47I_49P_50I_52G_53A_54G_55F_67L): 2.667; B03_logFC (Degron-ID 1871, SEQ ID NO 3960, 46F_47I_49P_50I_52G_53A_54N_55F_67L): 2.742; B03_logFC (Degron-ID 1913, SEQ ID NO 3962, 46F_47I_49P_50V_52G_53A_54Q_55F_67L): 2.739; B03_logFC (Degron-ID 1915, SEQ ID NO 3965, 46F_47I_49P_50V_52G_53A_54S_55F_67L): 2.736; B03_logFC (Degron-ID 2392, SEQ ID NO 4011, 46F_47L_49P_50V_52G_53A_54P_55F_67L): 2.671; B03_logFC (Degron-ID 2957, SEQ ID NO 3986, 46F_47Q_49E_50I_52G_53A_54V_55F_67L): 2.708; B03_logFC (Degron-ID 2981, SEQ ID NO 4000, 46F_47Q_49E_50V_52G_53A_54C_55F_67L): 2.687; B03_logFC (Degron-ID 2996, SEQ ID NO 4026, 46F_47Q_49E_50V_52G_53A_54T_55F_67L): 2.643; B03_logFC (Degron-ID 2997, SEQ ID NO 3951, 46F_47Q_49E_50V_52G_53A_54V_55F_67L): 2.756; B03_logFC (Degron-ID 3073, SEQ ID NO 3979, 46F_47Q_49P_50I_52G_53A_54Q_55F_67L): 2.718; B03_logFC (Degron-ID 3076, SEQ ID NO 3959, 46F_47Q_49P_50I_52G_53A_54T_55F_67L): 2.742; B03_logFC (Degron-ID 3115, SEQ ID NO 3978, 46F_47Q_49P_50V_52G_53A_54S_55F_67L): 2.718; B03_logFC (Degron-ID 3432, SEQ ID NO 3998, 46F_47S_49E_50I_52G_53A_54P_55F_67L): 2.688; B03_logFC (Degron-ID 3540, SEQ ID NO 3999, 46F_47S_49P_50I_52G_53A_54A_55F_67L): 2.688; B03_logFC (Degron-ID 3791, SEQ ID NO 4035, 46F_47T_49P_50I_52G_53A_54N_55F_67L): 2.632; B03_logFC (Degron-ID 3833, SEQ ID NO 4034, 46F_47T_49P_50V_52G_53A_54Q_55F_67L): 2.635; B03_logFC (Degron-ID 3835, SEQ ID NO 3974, 46F_47T_49P_50V_52G_53A_54S_55F_67L): 2.722; B03_logFC (Degron-ID 3953, SEQ ID NO 3961, 46F_47V_49E_50V_52G_53A_54Q_55F_67L): 2.742; B03_logFC (Degron-ID 4065, SEQ ID NO 4015, 46F_47V_49P_50V_52G_53A_54G_55F_67L): 2.665; B03_logFC (Degron-ID 4087, SEQ ID NO 3963, 46F_47W_49D_50I_52G_53A_54I_55F_67L): 2.738
